Measured values: patent US20240317735A1, “HYDROISOQUINOLINE OR HYDRONAPHTHYRIDINE COMPOUNDS FOR THE TREATMENT OF AUTOIMMUNE DISEASE” (Hoffmann-La Roche Inc., priority 2020, published 2024)

Target: T1, human TLR8 (Homo sapiens, UniProt Q9NR97)
T1 construct: host or cells: HEK293 (HEK-Blue hTLR8)
T1 sequence (Q9NR97 27-1041): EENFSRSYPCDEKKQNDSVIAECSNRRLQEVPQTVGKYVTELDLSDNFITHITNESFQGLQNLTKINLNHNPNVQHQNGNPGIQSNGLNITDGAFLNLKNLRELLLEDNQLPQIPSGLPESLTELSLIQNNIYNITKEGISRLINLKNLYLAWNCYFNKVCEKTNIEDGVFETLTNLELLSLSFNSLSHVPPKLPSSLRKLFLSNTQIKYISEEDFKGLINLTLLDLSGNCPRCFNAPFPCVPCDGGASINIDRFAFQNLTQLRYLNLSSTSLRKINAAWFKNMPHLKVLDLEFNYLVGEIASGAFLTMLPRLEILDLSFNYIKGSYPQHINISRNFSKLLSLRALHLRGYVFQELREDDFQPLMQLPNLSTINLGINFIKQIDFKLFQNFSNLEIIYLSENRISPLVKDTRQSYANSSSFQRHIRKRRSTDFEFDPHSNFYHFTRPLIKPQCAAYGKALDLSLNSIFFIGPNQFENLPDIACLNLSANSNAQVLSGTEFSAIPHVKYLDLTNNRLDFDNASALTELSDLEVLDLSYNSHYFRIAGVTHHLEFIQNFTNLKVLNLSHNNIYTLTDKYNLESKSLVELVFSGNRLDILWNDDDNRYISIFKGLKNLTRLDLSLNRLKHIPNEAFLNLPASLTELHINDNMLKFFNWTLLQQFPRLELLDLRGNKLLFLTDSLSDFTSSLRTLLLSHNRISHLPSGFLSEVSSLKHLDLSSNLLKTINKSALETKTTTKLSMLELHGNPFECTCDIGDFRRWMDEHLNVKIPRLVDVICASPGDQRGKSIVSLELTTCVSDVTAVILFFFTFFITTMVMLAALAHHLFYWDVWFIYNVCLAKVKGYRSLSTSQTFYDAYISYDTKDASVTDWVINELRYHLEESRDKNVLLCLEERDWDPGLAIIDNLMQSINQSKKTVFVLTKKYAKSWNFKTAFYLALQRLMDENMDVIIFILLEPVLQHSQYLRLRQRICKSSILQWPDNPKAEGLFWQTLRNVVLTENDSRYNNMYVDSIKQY
Test: HEK293-Blue-hTLR-8 cells assay (SEAP reporter, R848 stimulation)
Assay type: cell-based
Details: HEK293-Blue-hTLR8 cells, R848, 20 hrs; read-out: HEK/hTLR8 IC50
Method: The following tests were carried out in order to determine the activity of the compounds of formula (I) and (Ia) in HEK293-Blue-hTLR-7/8/9 cells assay.
A stable HEK293-Blue-hTLR-8 cell line was purchased from InvivoGen (Cat. #: hkb-htlr8, San Diego, California, USA). These cells were originally designed for studying the stimulation of human TLR8 by monitoring the activation of NF-κB. A SEAP (secreted embryonic alkaline phosphatase) reporter gene was placed under the control of the IFN-β minimal promoter fused to five NF-κB and AP-1-binding sites. The SEAP was induced by activating NF-κB and AP-1 via stimulating HEK-Blue hTLR8 cells with TLR8 ligands. Therefore the reporter expression was declined by TLR8 antagonist under the stimulation of a ligand, such as R848, for incubation of 20 hrs. The cell culture supernatant SEAP reporter activity was determined using QUANTI-Blue™ kit (Cat. #: rep-qb1, Invivogen, San Diego, Ca, USA) at a wavelength of 640 nm, a detection medium that turns purple or blue in the presence of alkaline phosphatase.
HEK293-Blue-hTLR8 cells were incubated at a density of 250,000˜450,000 cells/mL in a volume of 170 μL in a 96-well plate in Dulbecco's Modified Eagle's medium (DMEM) containing 4.5 g/L glucose, […] penicillin, […], […] Normocin, 2 mM L-glutamine, 10% (v/v) heat-inactivated fetal bovine serum with addition of 20 μL test compound in a serial dilution in the presence of final DMSO at 1% and 10 μL of 60 uM R848 in above DMEM, perform incubation under 37° C. in a C02 incubator for 20 hrs. Then 20 μL of the supernatant from each well was incubated with 180 μL Quanti-blue substrate solution at 37° C. for 2 hrs and the absorbance was read at 620-655 nm using a spectrophotometer. The signaling pathway that TLR8 activation leads to downstream NF-κB activation has been widely accepted, and therefore similar reporter assay was modified for evaluating TLR8 antagonist.

Row | Structure (SMILES) | IC50
1 | C[C@H]1CN(c2ccnc3c2cnn3C)Cc2ccc(N3CC4CNC[C@H]4C3=O)cc21 (relative stereo) [Example 17, cis-5-[(4R)-4-methyl-2-(1-methylpyrazolo[3,4-b]pyridin-4-yl)-3,4-dihydro-1H-isoquinolin-6-yl]-1,2,3,3a,6,6a-hexahydropyrrolo[3,4-c]pyrrol-4-one] | 11 nM
2 | C[C@H]1CN(c2ccnc3c2cnn3C)Cc2ccc(N3C[C@@H]4CCNCC4C3=O)cc21 (relative stereo) [Example 55, cis-2-[(4R)-4-methyl-2-(1-methylpyrazolo[3,4-b]pyridin-4-yl)-3,4-dihydro-1H-isoquinolin-6-yl]-3a,4,5,6,7,7a-hexahydro-1H-pyrrolo[3,4-c]pyridin-3-one] | 6 nM
3 | C[C@H]1CN(c2ccnc3c2cnn3C)Cc2ccc(N3C[C@@]4(CCNC4)CC3=O)cc21 (single isomer, unassigned) [Example 53] | 6 nM
4 | C[C@H]1CN(c2ccnc3c2cnn3C)Cc2ccc(N3C[C@]4(CCNC4)CC3=O)cc21 (single isomer, unassigned) [Example 54] | 5 nM
5 | C[C@H]1CN(c2ccnc3c2cnn3C)Cc2ccc(N3C[C@H]4CCNC[C@H]4C3=O)cc21 (single isomer, unassigned) [Example 56] | 7 nM
6 | C[C@H]1CN(c2ccnc3c2cnn3C)Cc2ccc(N3C[C@@H]4CCNC[C@@H]4C3=O)cc21 (single isomer, unassigned) [Example 57] | 24 nM
7 | C[C@H]1CN(c2ccnc3c2cnn3C)Cc2ccc(N3CCNCC3)cc21 [Example 1, (4R)-4-methyl-2-(1-methylpyrazolo[3,4-b]pyridin-4-yl)-6-piperazin-1-yl-3,4-dihydro-1H-isoquinoline] | 2 nM
8 | Cc1cc(N2Cc3ccc(N4CCNCC4)cc3[C@@H](C)C2)c2cnn(C)c2n1 [Example 2, (4R)-2-(1,6-dimethylpyrazolo[3,4-b]pyridin-4-yl)-4-methyl-6-piperazin-1-yl-3,4-dihydro-1H-isoquinoline] | 1 nM
9 | Cn1ncc2c(N3CCc4cc(N5CCNCC5)ccc4C3)ccnc21 [Example 3, 2-(1-methylpyrazolo[3,4-b]pyridin-4-yl)-6-piperazin-1-yl-3,4-dihydro-1H-isoquinoline] | 56 nM
10 | CC1CN(c2ccnc3c2cnn3C)Cc2ccc(N3CCC4(CCNCC4)CC3)cc21 (stereo not drawn) [Example 4, 3-[4-methyl-2-(1-methylpyrazolo[3,4-b]pyridin-4-yl)-3,4-dihydro-1H-isoquinolin-6-yl]-3,9-diazaspiro[5.5]undecane] | 7 nM
11 | Cc1cc(N2Cc3ccc(N4CCC5(CCNCC5)CC4)cc3C(C)C2)c2cnn(C)c2n1 (stereo not drawn) [Example 5, 3-[2-(1,6-dimethylpyrazolo[3,4-b]pyridin-4-yl)-4-methyl-3,4-dihydro-1H-isoquinolin-6-yl]-3,9-diazaspiro[5.5]undecane] | 10 nM
12 | Cn1ncc2c(N3Cc4ccc(N5CCC6(CCNCC6)CC5)cc4C(C)(C)C3)ccnc21 [Example 6, 3-[4,4-dimethyl-2-(1-methylpyrazolo[3,4-b]pyridin-4-yl)-1,3-dihydroisoquinolin-6-yl]-3,9-diazaspiro[5.5]undecane] | 18 nM
13 | C[C@H]1CN(c2ccnc3c2cnn3C)Cc2ccc(N3CCN(C(=O)C4CCNCC4)CC3)cc21 [Example 7, 4-piperidyl-[4-[(4R)-4-methyl-2-(1-methylpyrazolo[3,4-b]pyridin-4-yl)-3,4-dihydro-1H-isoquinolin-6-yl]piperazin-1-yl]methanone] | 17 nM
14 | C[C@H]1CN(c2ccnc3c2cnn3C)Cc2ccc(N3CCN(C(=O)C4CCCN4)CC3)cc21 (stereo partly drawn) [Example 8, pyrrolidin-2-yl-[4-[(4R)-4-methyl-2-(1-methylpyrazolo[3,4-b]pyridin-4-yl)-3,4-dihydro-1H-isoquinolin-6-yl]piperazin-1-yl]methanone] | 6 nM
15 | C[C@H]1CN(c2ccnc3c2cnn3C)Cc2ccc(N3CCN(c4cc5c(cn4)CCNC5)CC3)cc21 [Example 9, 7-[4-[(4R)-4-methyl-2-(1-methylpyrazolo[3,4-b]pyridin-4-yl)-3,4-dihydro-1H-isoquinolin-6-yl]piperazin-1-yl]-1,2,3,4-tetrahydro-2,6-naphthyridine] | 11 nM
16 | C[C@H]1CN(c2ccnc3c2cnn3C)Cc2ccc(N3CCC(N4CCNCC4)CC3)cc21 [Example 10, (4R)-4-methyl-2-(1-methylpyrazolo[3,4-b]pyridin-4-yl)-6-(4-piperazin-1-yl-1-piperidyl)-3,4-dihydro-1H-isoquinoline] | 1 nM
17 | CO[C@@H]1CN(C2CCN(c3ccc4c(c3)[C@@H](C)CN(c3ccnc5c3cnn5C)C4)CC2)C[C@H]1N [Example 11, (3R,4R)-4-methoxy-1-[1-[(4R)-4-methyl-2-(1-methylpyrazolo[3,4-b]pyridin-4-yl)-3,4-dihydro-1H-isoquinolin-6-yl]-4-piperidyl]pyrrolidin-3-amine] | < 0.3 nM
18 | C[C@H]1CN(c2ccnc3c2cnn3C)Cc2ccc(N3CCN(C(=O)C4CNCCO4)CC3)cc21 (stereo partly drawn) [Example 12, morpholin-2-yl-[4-[(4R)-4-methyl-2-(1-methylpyrazolo[3,4-b]pyridin-4-yl)-3,4-dihydro-1H-isoquinolin-6-yl]piperazin-1-yl]methanone] | 8 nM
19 | C[C@H]1CN(c2ccnc3c2cnn3C)Cc2ccc(N3CCC(O)(CN(C)C)CC3)cc21 [Example 13, 4-[(dimethylamino)methyl]-1-[(4R)-4-methyl-2-(1-methylpyrazolo[3,4-b]pyridin-4-yl)-3,4-dihydro-1H-isoquinolin-6-yl]piperidin-4-ol] | 2 nM
20 | Cc1cc(N2Cc3ccc(N4CCC(O)(CN(C)C)CC4)cc3[C@@H](C)C2)c2cnn(C)c2n1 [Example 14, 4-[(dimethylamino)methyl]-1-[(4R)-2-(1,6-dimethylpyrazolo[3,4-b]pyridin-4-yl)-4-methyl-3,4-dihydro-1H-isoquinolin-6-yl]piperidin-4-ol] | 1 nM
21 | CC1CN(c2ccc3c(c2)[C@@H](C)CN(c2ccnc4c2cnn4C)C3)CCN1 (stereo partly drawn) [Example 15, (4R)-4-methyl-6-(3-methylpiperazin-1-yl)-2-(1-methylpyrazolo[3,4-b]pyridin-4-yl)-3,4-dihydro-1H-isoquinoline] | 3 nM
22 | C[C@H]1CN(c2ccnc3c2cnn3C)Cc2ccc(N3CC4(CCNCC4)CC3=O)cc21 [Example 16, 2-[(4R)-4-methyl-2-(1-methylpyrazolo[3,4-b]pyridin-4-yl)-3,4-dihydro-1H-isoquinolin-6-yl]-2,8-diazaspiro[4.5]decan-3-one] | 4 nM
23 | C[C@H]1CN(c2ccnc3c2cnn3C)Cc2ccc(OC[C@H]3CNCCN3)cc21 [Example 18, (4R)-4-methyl-2-(1-methylpyrazolo[3,4-b]pyridin-4-yl)-6-[[(2R)-piperazin-2-yl]methoxy]-3,4-dihydro-1H-isoquinoline] | 4 nM
24 | C[C@H]1CN(c2ccnc3c2cnn3C)Cc2ccc(OC[C@@H]3CNCCN3)cc21 [Example 19, (4R)-4-methyl-2-(1-methylpyrazolo[3,4-b]pyridin-4-yl)-6-[[(2S)-piperazin-2-yl]methoxy]-3,4-dihydro-1H-isoquinoline] | 4 nM
